{"source": "paper PMC5513037", "about": "“Examining the influence of specificity ligands and ATP-competitive ligands on the overall effectiveness of bivalent kinase inhibitors” (Proteome Science, 2017)", "experiment_in_all_cases": "KAM-matrix competition in K562 lysate;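 as to 0.001 uM KAM: median log10 fold change of treatment over DMSO control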;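 as to 0.01 uM KAM: median log10 fold change of treatment over DMSO control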;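 as to 0.1 uM KAM: median log10 fold change of treatment over DMSO control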;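 as to 1 uM KAM: median log10 fold change of treatment over DMSO control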;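 as to 10 uM KAM: median log10 fold change of treatment over DMSO control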", "format_in_all_cases": "binding", "key": {"ADRBK1": {"target": "T1, ADRBK1 (Homo sapiens, UniProt P25098)", "T1 construct": "endogenous in cells; host or cells: K562", "T1 sequence (P25098 1-689)": "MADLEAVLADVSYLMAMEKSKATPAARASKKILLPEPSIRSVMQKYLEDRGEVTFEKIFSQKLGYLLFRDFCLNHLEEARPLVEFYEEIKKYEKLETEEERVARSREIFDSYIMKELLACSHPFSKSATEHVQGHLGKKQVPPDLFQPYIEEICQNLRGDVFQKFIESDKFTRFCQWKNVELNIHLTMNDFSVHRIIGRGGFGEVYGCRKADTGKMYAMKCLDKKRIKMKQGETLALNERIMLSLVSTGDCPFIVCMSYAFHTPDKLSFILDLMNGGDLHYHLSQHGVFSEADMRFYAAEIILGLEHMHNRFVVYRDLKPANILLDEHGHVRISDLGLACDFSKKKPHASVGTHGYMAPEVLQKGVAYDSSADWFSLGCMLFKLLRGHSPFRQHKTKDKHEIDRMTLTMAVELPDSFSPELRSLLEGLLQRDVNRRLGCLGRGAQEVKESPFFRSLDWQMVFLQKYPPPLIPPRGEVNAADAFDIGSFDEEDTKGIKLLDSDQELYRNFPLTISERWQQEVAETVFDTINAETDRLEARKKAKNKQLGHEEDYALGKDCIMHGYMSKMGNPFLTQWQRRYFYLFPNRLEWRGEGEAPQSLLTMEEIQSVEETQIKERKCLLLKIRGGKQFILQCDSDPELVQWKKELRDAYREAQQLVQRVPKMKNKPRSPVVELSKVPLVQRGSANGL", "description": "(§1) Supplement 12953_2017_125_MOESM1_ESM.zip/MS_Supp Info.xlsx, sheet \"KAM\" | column: 10 uM KAM; 1 uM KAM; 0.1 uM KAM; 0.01 uM KAM; 0.001 uM KAM; RB50"}, "CAMK2D": {"target": "T2, CAMK2D (Homo sapiens, UniProt Q13557)", "T2 construct": "endogenous in cells; host or cells: K562", "T2 sequence (Q13557 whole entry)": "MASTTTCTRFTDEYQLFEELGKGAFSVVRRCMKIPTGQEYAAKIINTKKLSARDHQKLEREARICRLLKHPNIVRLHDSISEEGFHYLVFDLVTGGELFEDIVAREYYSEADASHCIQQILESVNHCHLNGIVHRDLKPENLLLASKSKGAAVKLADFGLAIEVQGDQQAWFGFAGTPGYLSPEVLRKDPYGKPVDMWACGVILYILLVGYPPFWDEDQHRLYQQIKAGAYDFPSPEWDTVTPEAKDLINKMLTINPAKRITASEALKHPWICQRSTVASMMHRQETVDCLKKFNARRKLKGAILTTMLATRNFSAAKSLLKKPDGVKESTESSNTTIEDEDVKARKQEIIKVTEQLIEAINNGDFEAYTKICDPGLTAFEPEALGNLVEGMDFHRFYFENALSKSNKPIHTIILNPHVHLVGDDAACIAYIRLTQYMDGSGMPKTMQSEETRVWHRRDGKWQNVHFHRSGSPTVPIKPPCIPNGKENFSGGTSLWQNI", "description": "as §1"}, "CSNK1A1": {"target": "T3, CSNK1A1 (Homo sapiens, UniProt P48729)", "T3 construct": "endogenous in cells; host or cells: K562", "T3 sequence (P48729 whole entry)": "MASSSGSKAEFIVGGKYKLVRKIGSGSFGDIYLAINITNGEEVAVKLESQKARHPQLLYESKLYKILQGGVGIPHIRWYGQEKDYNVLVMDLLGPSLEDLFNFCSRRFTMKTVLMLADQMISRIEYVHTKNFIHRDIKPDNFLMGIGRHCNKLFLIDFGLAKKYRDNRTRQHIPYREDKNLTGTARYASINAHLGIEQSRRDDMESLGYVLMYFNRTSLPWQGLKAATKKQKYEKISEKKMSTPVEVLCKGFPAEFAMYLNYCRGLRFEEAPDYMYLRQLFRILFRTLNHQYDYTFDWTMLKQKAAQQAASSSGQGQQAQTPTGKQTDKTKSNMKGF", "description": "as §1"}, "MAP3K1": {"target": "T4, MAP3K1 (Homo sapiens, UniProt Q13233)", "T4 construct": "endogenous in cells; host or cells: K562 cell lysate", "T4 sequence (Q13233 whole entry)": "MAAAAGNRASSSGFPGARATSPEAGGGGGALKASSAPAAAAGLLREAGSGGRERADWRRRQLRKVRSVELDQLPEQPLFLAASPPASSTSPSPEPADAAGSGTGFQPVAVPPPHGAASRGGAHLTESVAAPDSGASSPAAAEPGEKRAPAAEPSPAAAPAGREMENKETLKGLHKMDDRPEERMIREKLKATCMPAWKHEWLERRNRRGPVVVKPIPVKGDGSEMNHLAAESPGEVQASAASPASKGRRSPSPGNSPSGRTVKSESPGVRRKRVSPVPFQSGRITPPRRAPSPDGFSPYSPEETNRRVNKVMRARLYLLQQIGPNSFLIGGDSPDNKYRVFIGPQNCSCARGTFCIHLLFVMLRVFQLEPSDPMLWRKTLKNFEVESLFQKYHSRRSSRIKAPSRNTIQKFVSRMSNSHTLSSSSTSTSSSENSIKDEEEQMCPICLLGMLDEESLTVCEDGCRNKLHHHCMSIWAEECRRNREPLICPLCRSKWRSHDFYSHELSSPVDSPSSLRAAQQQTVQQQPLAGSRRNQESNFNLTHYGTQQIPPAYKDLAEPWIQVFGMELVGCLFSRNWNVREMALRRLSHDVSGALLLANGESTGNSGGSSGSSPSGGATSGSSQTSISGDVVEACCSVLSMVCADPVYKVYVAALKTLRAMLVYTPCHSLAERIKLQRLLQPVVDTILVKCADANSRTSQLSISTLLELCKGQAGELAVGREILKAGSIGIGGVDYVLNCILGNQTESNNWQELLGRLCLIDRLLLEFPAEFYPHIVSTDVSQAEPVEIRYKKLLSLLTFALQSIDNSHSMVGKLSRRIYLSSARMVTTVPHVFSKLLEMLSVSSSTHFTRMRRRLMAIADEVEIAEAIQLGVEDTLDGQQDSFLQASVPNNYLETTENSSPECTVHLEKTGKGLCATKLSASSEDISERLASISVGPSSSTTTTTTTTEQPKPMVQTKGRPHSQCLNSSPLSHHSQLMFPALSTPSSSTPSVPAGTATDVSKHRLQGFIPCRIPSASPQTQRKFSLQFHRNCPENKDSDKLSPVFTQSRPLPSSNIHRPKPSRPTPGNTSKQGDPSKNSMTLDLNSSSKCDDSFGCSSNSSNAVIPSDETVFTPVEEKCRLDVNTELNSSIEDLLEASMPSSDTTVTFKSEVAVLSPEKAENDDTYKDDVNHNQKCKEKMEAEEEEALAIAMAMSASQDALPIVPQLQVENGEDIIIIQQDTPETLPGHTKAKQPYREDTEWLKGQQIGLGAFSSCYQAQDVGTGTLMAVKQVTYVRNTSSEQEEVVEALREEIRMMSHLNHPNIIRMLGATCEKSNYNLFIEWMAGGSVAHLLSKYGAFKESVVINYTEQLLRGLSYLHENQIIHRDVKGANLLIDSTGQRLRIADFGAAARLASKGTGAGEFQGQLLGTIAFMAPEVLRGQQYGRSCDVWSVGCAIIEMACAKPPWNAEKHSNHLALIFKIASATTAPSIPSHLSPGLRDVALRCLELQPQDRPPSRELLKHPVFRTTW", "description": "as §1"}, "MAP3K7": {"target": "T5, MAP3K7 (Homo sapiens, UniProt O43318)", "T5 construct": "endogenous in cells; host or cells: K562 cells (lysate)", "T5 sequence (O43318 1-606)": "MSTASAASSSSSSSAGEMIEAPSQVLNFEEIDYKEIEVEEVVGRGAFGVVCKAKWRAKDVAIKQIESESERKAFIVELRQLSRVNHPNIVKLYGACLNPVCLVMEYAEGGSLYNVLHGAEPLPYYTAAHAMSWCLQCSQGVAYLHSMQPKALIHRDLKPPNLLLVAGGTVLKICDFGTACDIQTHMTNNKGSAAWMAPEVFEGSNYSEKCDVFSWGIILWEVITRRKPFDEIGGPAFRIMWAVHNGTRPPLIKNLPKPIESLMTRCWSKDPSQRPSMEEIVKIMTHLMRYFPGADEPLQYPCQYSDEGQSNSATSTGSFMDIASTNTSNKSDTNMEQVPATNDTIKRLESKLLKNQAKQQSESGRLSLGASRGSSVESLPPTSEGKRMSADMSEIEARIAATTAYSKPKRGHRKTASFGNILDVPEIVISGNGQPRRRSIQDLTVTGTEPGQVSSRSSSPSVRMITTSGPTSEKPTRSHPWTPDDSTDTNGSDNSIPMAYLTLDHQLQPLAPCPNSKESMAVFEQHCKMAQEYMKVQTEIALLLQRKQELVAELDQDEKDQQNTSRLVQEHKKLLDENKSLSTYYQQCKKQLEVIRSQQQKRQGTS", "description": "as §1"}, "SIK3": {"target": "T6, SIK3 (Homo sapiens, UniProt Q9Y2K2)", "T6 construct": "endogenous in cells; host or cells: K562", "T6 sequence (Q9Y2K2 whole entry)": "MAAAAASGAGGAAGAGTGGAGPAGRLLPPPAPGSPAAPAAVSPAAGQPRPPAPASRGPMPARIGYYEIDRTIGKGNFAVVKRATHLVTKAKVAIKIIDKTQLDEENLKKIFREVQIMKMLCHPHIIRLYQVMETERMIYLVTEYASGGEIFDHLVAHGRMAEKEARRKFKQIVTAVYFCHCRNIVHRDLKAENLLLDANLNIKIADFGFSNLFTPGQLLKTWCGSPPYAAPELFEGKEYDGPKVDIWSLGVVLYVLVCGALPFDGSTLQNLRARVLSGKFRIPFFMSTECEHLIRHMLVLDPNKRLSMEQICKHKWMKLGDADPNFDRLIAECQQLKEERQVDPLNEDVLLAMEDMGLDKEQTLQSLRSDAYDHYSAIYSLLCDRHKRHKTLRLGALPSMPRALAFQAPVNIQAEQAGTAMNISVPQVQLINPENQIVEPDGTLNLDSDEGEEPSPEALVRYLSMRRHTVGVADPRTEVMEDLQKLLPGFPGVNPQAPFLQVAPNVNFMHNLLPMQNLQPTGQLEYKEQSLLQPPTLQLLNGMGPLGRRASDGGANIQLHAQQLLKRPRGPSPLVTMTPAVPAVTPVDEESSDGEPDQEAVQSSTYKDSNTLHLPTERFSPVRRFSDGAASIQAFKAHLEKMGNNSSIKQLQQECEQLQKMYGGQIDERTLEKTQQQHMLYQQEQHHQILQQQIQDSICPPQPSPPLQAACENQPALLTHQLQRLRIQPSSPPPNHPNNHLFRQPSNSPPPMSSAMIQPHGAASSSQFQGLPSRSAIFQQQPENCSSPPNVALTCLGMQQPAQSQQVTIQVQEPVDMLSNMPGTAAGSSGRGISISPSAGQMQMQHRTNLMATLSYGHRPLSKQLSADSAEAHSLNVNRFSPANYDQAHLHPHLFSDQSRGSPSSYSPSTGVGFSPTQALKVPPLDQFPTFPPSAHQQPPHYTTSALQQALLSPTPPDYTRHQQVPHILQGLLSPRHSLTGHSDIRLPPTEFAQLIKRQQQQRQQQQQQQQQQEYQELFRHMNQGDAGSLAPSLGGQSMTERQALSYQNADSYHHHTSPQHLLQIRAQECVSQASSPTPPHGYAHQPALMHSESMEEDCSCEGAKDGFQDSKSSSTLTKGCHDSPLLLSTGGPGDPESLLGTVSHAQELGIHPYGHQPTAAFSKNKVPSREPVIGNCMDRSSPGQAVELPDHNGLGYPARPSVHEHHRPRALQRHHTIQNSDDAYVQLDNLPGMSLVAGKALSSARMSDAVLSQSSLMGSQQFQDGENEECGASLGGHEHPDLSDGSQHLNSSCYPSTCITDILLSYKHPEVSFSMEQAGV", "description": "as §1"}, "CDK12": {"target": "T7, CDK12 (Homo sapiens, UniProt Q9NYV4)", "T7 construct": "endogenous in cells; host or cells: K562", "description": "as §1"}, "[1]": {"conditions": "KAM 0.001-10 uM, read-out: RB50 (the source's name)"}, "[2]": {"conditions": "read-out: RB50 (the source's name)"}}, "data": [{"smiles": "N#CCc1ccc(Nc2nc(NCCCN)cc(Nc3cc(C4CC4)[nH]n3)n2)cc1", "note": "[KAM]", "values": [{"measurement": "IC50", "setting": "ADRBK1; [1]", "value": "> 10", "unit": "µM"}, {"measurement": "0.001 uM KAM", "setting": "ADRBK1; relative to 0 uM KAM = 0", "value": 0.02352}, {"measurement": "0.01 uM KAM", "setting": "ADRBK1; relative to 0 uM KAM = 0", "value": 0.07327}, {"measurement": "0.1 uM KAM", "setting": "ADRBK1; relative to 0 uM KAM = 0", "value": 0.03347}, {"measurement": "1 uM KAM", "setting": "ADRBK1; relative to 0 uM KAM = 0", "value": 0.04428}, {"measurement": "10 uM KAM", "setting": "ADRBK1; relative to 0 uM KAM = 0", "value": 0.02417}, {"measurement": "IC50", "setting": "CAMK2D; [1]", "value": "> 10", "unit": "µM"}, {"measurement": "0.001 uM KAM", "setting": "CAMK2D; relative to 0 uM KAM = 0", "value": -0.03504}, {"measurement": "0.01 uM KAM", "setting": "CAMK2D; relative to 0 uM KAM = 0", "value": 0.05262}, {"measurement": "0.1 uM KAM", "setting": "CAMK2D; relative to 0 uM KAM = 0", "value": 0.01424}, {"measurement": "1 uM KAM", "setting": "CAMK2D; relative to 0 uM KAM = 0", "value": -0.07545}, {"measurement": "10 uM KAM", "setting": "CAMK2D; relative to 0 uM KAM = 0", "value": -0.201}, {"measurement": "IC50", "setting": "CSNK1A1; [1]", "value": "> 10", "unit": "µM"}, {"measurement": "0.001 uM KAM", "setting": "CSNK1A1; relative to 0 uM KAM = 0", "value": 0.05671}, {"measurement": "0.01 uM KAM", "setting": "CSNK1A1; relative to 0 uM KAM = 0", "value": -0.02341}, {"measurement": "0.1 uM KAM", "setting": "CSNK1A1; relative to 0 uM KAM = 0", "value": 0.02518}, {"measurement": "1 uM KAM", "setting": "CSNK1A1; relative to 0 uM KAM = 0", "value": 0.03521}, {"measurement": "10 uM KAM", "setting": "CSNK1A1; relative to 0 uM KAM = 0", "value": -0.008144}, {"measurement": "median Log10 fold change", "setting": "MAP3K1; 0.001 uM KAM", "value": -0.0387}, {"measurement": "median Log10 fold change", "setting": "MAP3K1; 0.01 uM KAM", "value": -0.001908}, {"measurement": "median Log10 fold change", "setting": "MAP3K1; 0.1 uM KAM", "value": -0.0773}, {"measurement": "median Log10 fold change", "setting": "MAP3K1; 1 uM KAM", "value": -0.1722}, {"measurement": "median Log10 fold change", "setting": "MAP3K1; 10 uM KAM", "value": -0.3697}, {"measurement": "IC50", "setting": "MAP3K1; [2]", "value": 4.53, "unit": "µM"}, {"measurement": "median Log10 fold change", "setting": "MAP3K7; 0.001 uM KAM", "value": -0.02589}, {"measurement": "median Log10 fold change", "setting": "MAP3K7; 0.01 uM KAM", "value": -0.01486}, {"measurement": "median Log10 fold change", "setting": "MAP3K7; 0.1 uM KAM", "value": -0.1357}, {"measurement": "median Log10 fold change", "setting": "MAP3K7; 1 uM KAM", "value": -0.3563}, {"measurement": "median Log10 fold change", "setting": "MAP3K7; 10 uM KAM", "value": -0.511}, {"measurement": "IC50", "setting": "MAP3K7; [2]", "value": 0.786, "unit": "µM"}, {"measurement": "IC50", "setting": "SIK3; [1]", "value": "> 10", "unit": "µM"}, {"measurement": "0.001 uM KAM", "setting": "SIK3; relative to 0 uM KAM = 0", "value": -0.07223}, {"measurement": "0.01 uM KAM", "setting": "SIK3; relative to 0 uM KAM = 0", "value": -0.0771}, {"measurement": "0.1 uM KAM", "setting": "SIK3; relative to 0 uM KAM = 0", "value": -0.08847}, {"measurement": "1 uM KAM", "setting": "SIK3; relative to 0 uM KAM = 0", "value": -0.01623}, {"measurement": "10 uM KAM", "setting": "SIK3; relative to 0 uM KAM = 0", "value": -0.07209}, {"measurement": "median Log10 fold change", "setting": "CDK12; 0.001 uM KAM", "value": 0.006765}, {"measurement": "median Log10 fold change", "setting": "CDK12; 0.01 uM KAM", "value": 0.002685}, {"measurement": "median Log10 fold change", "setting": "CDK12; 0.1 uM KAM", "value": -0.1288}, {"measurement": "median Log10 fold change", "setting": "CDK12; 1 uM KAM", "value": -0.2742}, {"measurement": "median Log10 fold change", "setting": "CDK12; 10 uM KAM", "value": -0.4096}, {"measurement": "IC50", "setting": "CDK12; [2]", "value": 1.57, "unit": "µM"}]}]}
